Test results as given in article PMC7349888, “Synthesis and Evaluation of Dodecaboranethiol Containing Kojic Acid (KA-BSH) as a Novel Agent for Boron Neutron Capture Therapy” (Cells, 2020).
pIC50: −log10 of the molar value.

Assays:
B16 mouse melanoma cells = experiment: In vitro boron uptake in B16 cells; type: cell-based; conditions: Figure S1
Description: For the in vitro ^10B uptake study, B16 mouse melanoma cells, C6 rat glioma cells, and F98 rat glioma cells were used. B16 and C6 cells were used for in vitro testing at Osaka Prefecture University. Based on results from initial in vitro screening, the in vitro ^10B uptake study using F98 glioma cells were performed at Osaka Medical College. Four hundred thousand cells were seeded in a tissue culture dish (100 × 20 mm; Becton Dickinson, Franklin Lakes, NJ, USA) with DMEM supplemented with 10% FBS and 10% penicillin and streptomycin at 37 °C in a 5% CO2 atmosphere. After incubation for 4 days at 37 °C, the medium was removed, and DMEM with 10% FBS containing 1 mM KA-BSH, BSH, or BPA was added to each dish. The cells were incubated for an additional 24 h at 37 °C. The medium was then removed, and the cells were washed twice with 4 °C phosphate-buffered saline (PBS) and detached with trypsin–ethylenediamine tetraacetic acid solution. PBS was then added, and cells were digested overnight with 1 N nitric acid solution (Wako Pure Chemical Industries, Osaka, Japan), and ^10B uptake was determined by inductively coupled plasma atomic emission spectrometry (ICP-AES) using an iCAP6000 emission spectrometer (Hitachi High-Technologies, Tokyo, Japan).

F98 glioma bearing rats = experiment: In vivo BNCT therapeutic experiment, neutron irradiation at KURRI; set-up: species or system rat
Excerpt: All animal experimental procedures were approved by the Animal Use Review Board and Ethical Committee of Osaka Medical College (No. 25092, 28 October 2015) and Kyoto University Research Reactor Institute (KURRI, No. 25030-13, 1 April 2015), and performed following the Guide for the Care and Use of Laboratory Animals. Eight-week-old, male Fischer 344 rats weighing between 200 and 250 g were used (Japan SLC, Inc. Shizuoka, Japan). Rats were anesthetized with an intraperitoneal (ip) injection of a mixture of medetomidine 0.15 mg, midazolam 2 mg, and butorphanol 2.5 mg/kg body weight (bw). The head of each rat was fixed with a stereotactic frame (Model 900; David Kopf Instruments, Tujunga, CA, USA). The scalp was incised at the midline and a small burr hole was drilled into the skull (1 mm posterior and 4 mm right-lateral to the bregma), using an electric drill. And then, F98 glioma cells were injected into the brain using a 25 µL Hamilton microsyringe with a 26-gauge needle (model 1700 RN, Hamilton Bonaduz AG, Bonaduz, Switzerland). The needle was inserted at a 5 mm depth from the skull and F98 cells were diluted in 10 µL of DMEM containing low-gelling temperature agarose at a concentration of either 10^3 for therapeutic experiments or 10^5 cells for biodistribution experiments. They were injected over 30 s using an automatic infuser pump. The needle entry hole was immediately sealed with bone wax and the incised scalp was closed with 3-0 silk sutures (Ethicon, North Ryde, NSW). […]
Therapeutic experiments for BNCT were performed 14 days after stereotactic implantation of 10^3 F98 glioma cells. […] The therapeutic effect of BNCT was evaluated by the survival time of the animals. […]
The means and standard deviations (SD) were computed for ^10B concentrations of F98 glioma cells and tissues of Fischer rats bearing intracerebral implants of the F98 glioma. […] Statistical differences between means were calculated using the Student’s unpaired t-test. In therapeutic experiments, the median survival time (MST) was calculated for each group using the Kaplan–Meier estimate. […]

F98 rat glioma cells = experiment: Cell viability assay (WST-8) in F98 cells; type: cell-based; conditions: WST-8 test, read-out: IC50 (cytotoxicity)
Description: The cytotoxicity of KA-BSH was assayed using the water soluble tetrazolium (WST)-8 assay with a cell-counting kit (Wako Pure Chemicals, Osaka, Japan) following a modified version of the manufacturer-provided protocols. Relative cell survival was calculated according to Equation (1):(1) Relative cell survival (%)=absorbance value of compound treated well/absorbance value of untreated well×100

[1] = 10 mg 10B/kg iv, BNCT 1 h after administration

In the case of “S-(2-(5-hydroxy-4-oxo-4H-pyran-2-yl) methyl) Thioundecahydro-Closo- Dodecaborate (2-) Disodium Salt [KA-BSH]”, the “boron uptake into cancer cells” value (B16 mouse melanoma cells) was “taken up into cancer cells”, the “Survival Time, Median (MST)” value (F98 glioma bearing rats; [1]) was 36.0 days and the “Survival Time, Range” value (F98 glioma bearing rats; [1]) was 32 – 38. The “%ILS Median (percent increase life span)” value (F98 glioma bearing rats; relative to median survival time of untreated controls) was 22.0% and the pIC50 (F98 rat glioma cells) was 1.98.
